Laboratory results reported in patent US8957219B2, “Acetic acid amide derivative having inhibitory activity on endothelial lipase” (Shionogi & Co., Ltd., priority 2008, dated 2015).

biological target: human endothelial lipase (EL) (Homo sapiens (Human), UniProt Q9Y5X9); experiment: Human endothelial lipase (EL) inhibitory activity using human HDL; assay type: biochemical; conditions: human HDL 2 mg/ml, 4-hour reaction at 37° C., NEFA readout
Procedure: Evaluation Method of Human Endothelial Lipase (EL) Inhibitory Activity Using Human High-Density Lipoprotein (HDL)
After the present compound dissolved in DMSO was added to become 0.5% DMSO to the reaction buffer consisting of 20 mM tris hydrochloric acid (pH7.4), bovine serum albumin (0.5%), calcium chloride (4 mM), sodium chloride (150 mM) and human HDL (2 mg/ml), the EL enzyme was added (total volume was 20 μl).
After 4-hour reaction at 37° C., non-esterified fatty acid (NEFA) generated from HDL by EL was measured with a commercially available assay kit and the amount of NEFA was used as an index of enzyme activity.

human endothelial lipase (EL), sequence (Q9Y5X9 21-500): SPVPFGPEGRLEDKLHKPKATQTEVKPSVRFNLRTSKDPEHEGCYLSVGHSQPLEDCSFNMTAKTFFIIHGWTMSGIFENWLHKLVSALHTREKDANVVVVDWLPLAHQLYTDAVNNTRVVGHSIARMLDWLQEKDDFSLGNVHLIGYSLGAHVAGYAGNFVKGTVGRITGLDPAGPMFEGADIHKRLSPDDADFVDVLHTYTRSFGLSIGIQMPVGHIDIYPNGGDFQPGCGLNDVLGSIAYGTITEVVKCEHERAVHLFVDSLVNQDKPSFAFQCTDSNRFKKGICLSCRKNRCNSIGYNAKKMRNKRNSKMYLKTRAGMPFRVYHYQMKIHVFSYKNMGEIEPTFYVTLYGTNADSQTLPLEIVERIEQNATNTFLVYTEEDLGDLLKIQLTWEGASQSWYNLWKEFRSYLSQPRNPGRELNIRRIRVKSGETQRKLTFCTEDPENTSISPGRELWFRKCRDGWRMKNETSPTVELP

Row | Compound | IC50 [nM]
1 | O=C(Cc1nc2ccc(-c3ccccc3)cc2s1)NCc1nc(C(=O)O)cs1 [II-1-246] | 280
2 | O=C(Cc1nc2ccc(-c3ccccc3)cc2s1)NCc1cccc(C(=O)O)c1 [II-1-1] | 230
3 | N#CC1(NC(=O)CNC(=O)Cc2nc3ccc(-c4ccccc4)cc3s2)CC1 [II-2-67] | 29
4 | N#CCNC(=O)CNC(=O)Cc1nc2cc(-c3ccc(OC(F)(F)F)cc3)ccc2s1 [II-2-291] | 56
5 | N#CCNC(=O)CNC(=O)Cc1nc2ccc(-c3ccccc3)cc2s1 [II-2-1] | 110
6 | NS(=O)(=O)c1cccc(CNC(=O)Cc2nc3ccc(-c4ccccc4)cc3s2)c1 [II-1-11] | 560
7 | COc1cc2nc(CC(=O)NCC(=O)NCC#N)sc2cc1-c1ccccc1 [II-2-144] | 29
8 | COCC(O)CNC(=O)Cc1nc2ccc(-c3ccccc3)cc2s1 (stereo not drawn) [II-1-190] | 2100

More lines, in order of falling IC50, values ahead:

Row | IC50 [nM] | Compound
9 | 1300 | CN(C)C(=O)c1cccc(CNC(=O)Cc2nc3ccc(-c4ccccc4)cc3s2)c1 [II-1-17]
10 | 290 | O=C(Cc1nc2cc(-c3cccc(C(F)(F)F)c3)ccc2s1)NCc1cccc(C(=O)O)c1 [II-1-202]
11 | 92 | CC(O)CNC(=O)CNC(=O)Cc1nc2ccc(-c3ccccc3)cc2s1 (stereo not drawn) [II-2-131]
12 | 32 | C#CCNC(=O)CNC(=O)Cc1nc2ccc(-c3ccccc3)cc2s1 [II-2-211]
